Source: patent US20200222537A1, “BIOPHOTONIC COMPOSITIONS AND USES THEREOF” (KLOX TECHNOLOGIES LIMITED, priority 2016, published 2020)
In brackets after ≈: the same amount, converted by molar mass. Several values for one entry are separate records, joined by “and”; a condition that tells them apart may be missing. Identical values can stand only once.

What was measured:
[1] = Absorbance peak (Flex Station II); type: physicochemical
Experimental: (§1) The compounds were dissolved in the solvents and at the concentrations indicated in Table 2 and the absorbance and emission peaks were measured (measured using a Flex Station II, Model 384 by Molecular Devices Comp.).

[2] = Emission peak (Flex Station II); type: physicochemical
Experimental: as §1

[3] = Solubilization of chromophores in solvents; conditions: 1 M NaOH, aqueous buffer

CC1=C(/C=C/C(C)=C/C=C/C(C)=C/C=C/C=C(C)/C=C/C=C(C)/C=C/C2=C(C)C[C@@H](O)CC2(C)C)C(C)(C)C[C@H](O)C1 [Zeaxanthin]
Absorbance peak (nm) ([1]; gel and liquid): 465 nm (gel and | Emission peak (nm) ([2]; ex. 300 nm, gel): 415 nm and 432 nm and 740 nm and 817 nm | solubility (physchem; organic solvent or mixture): 2000 µg/mL (≈ 3.52 mM)

CCCCCCCCC[C@H](O)CC(=O)CCc1ccc(O)c(OC)c1 [10-Gingerol]
Absorbance peak (nm) ([1]; gel and liquid): 300 nm (gel and | solubility (physchem; organic solvent or mixture): 10000 µg/mL (≈ 28.5 mM)

O=C(O)/C=C/c1ccc(O)c(O)c1 [Caffeic acid]
Absorbance peak (nm) ([1]; liquid): 875 nm (liquid)

COc1ccc2cc3[n+](cc2c1OC)CCc1cc2c(cc1-3)OCO2 [Berberine chloride hydrate]
Emission peak (nm) ([2]; ex. 340 nm, gel): ex. 340 nm, em. 538 | Emission peak (nm) ([2]; ex. 430 nm, liquid): nm, em. 545 nm (liquid) | Emission peak (nm) ([2]; ex. 460 nm, gel + liquid): ex. 460 nm, em. 540

O=C(/C=C/C=C/c1ccc2c(c1)OCO2)N1CCCCC1 [Piperine]
Absorbance peak (nm) ([1]; medium not stated): 344 nm | Emission peak (nm) ([2]; ex. 340 nm, medium not stated): nm, em. 443 nm | Emission peak (nm) ([2]; ex. 460 nm, gel): ex. 460 nm, em. 634

O=C1C[C@@](O)(C(=O)O)C(C(=O)O)O1 (stereo partly drawn) [Garcinia acid]
Absorbance peak (nm) ([1]; gel and liquid): 300 nm (gel and | solubility (physchem; organic solvent or mixture): 10000 µg/mL (≈ 52.6 mM)

O=C1c2cccc(O)c2C(=O)c2c(O)cc(CO)cc21 [Aloe-emodin]
Emission peak (nm) ([2]; ex. 460 nm, gel): nm, em. 600 nm | Emission peak (nm) ([2]; ex. 460 nm, liquid): ex. 460 nm, em. 588 | solubility (physchem; organic solvent or mixture): 10000 µg/mL (≈ 37 mM)

Oc1ccc(/C=C/c2cc(O)cc(O)c2)cc1 [Resveratrol]
solubility (physchem; organic solvent or mixture): 10000 µg/mL (≈ 43.8 mM)

Cc1cc(O)c2c(=O)c3c(O)cc(O)c4c5c(O)cc(O)c6c(=O)c7c(O)cc(C)c8c1c2c(c34)c(c78)c65 [Hypericin]
Emission peak (nm) ([2]; ex. 345 nm, liquid): nm, em. 700 nm | Emission peak (nm) ([2]; ex. 460 nm, liquid): ex. 460 nm, em. 700 | Emission peak (nm) ([2]; ex. 620 nm, liquid): em. 700 nm (liquid); | solubility [3]: 500 µg/mL (≈ 0.991 mM)

O=c1oc2c(O)c(O)cc3c(=O)oc4c(O)c(O)cc1c4c23 [Ellagic acid]
Absorbance peak (nm) ([1]; gel): (liquid); 370 nm (gel) | Emission peak (nm) ([2]; ex. 370 nm, gel): ex. 370 nm, em. 736

COc1cc(/C=C/C(=O)/C=C(O)/C=C/c2ccc(O)c(OC)c2)ccc1O [Curcumin]
Absorbance peak (nm) ([1]; medium not stated): 440 nm | Emission peak (nm) ([2]; ex. 390 nm, liquid): em. 540 nm (liquid); | Emission peak (nm) ([2]; ex. 440 nm, gel): ex. 440 nm, em. 552 | Emission peak (nm) ([2]; ex. 460 nm, gel): ex. 460 nm, em. 555 | Emission peak (nm) ([2]; ex. 460 nm, liquid): nm, em. 544 nm | solubility (physchem; organic solvent or mixture): 5000 µg/mL (≈ 13.6 mM)

C/C=C1/[C@H](O[C@@H]2O[C@H](CO)[C@@H](O)[C@H](O)[C@H]2O)OC=C(C(=O)OC)[C@H]1CC(=O)OCCc1ccc(O)c(O)c1 [Oleuropein]
Absorbance peak (nm) ([1]; gel and liquid): 325 nm (gel and | solubility (physchem; organic solvent or mixture): 10000 µg/mL (≈ 18.5 mM)

O=C(/C=C/c1ccc(O)c(O)c1)OCCc1ccccc1 [Caffeic acid phenethyl ester (CAPE), Caffeic acid phenethyl ester]
solubility (physchem; organic solvent or mixture): 10000 µg/mL (≈ 35.2 mM)

CC(C)=CCC/C(C)=C/C=C/C(C)=C/C=C/C(C)=C/C=C/C=C(C)/C=C/C=C(C)/C=C/C=C(\C)CCC=C(C)C [Lycopene]
Absorbance peak (nm) ([1]; gel): 490 nm | solubility (physchem; organic solvent or mixture): 1000 µg/mL (≈ 1.86 mM)

O=C(OC[C@H]1O[C@@H](OC(=O)c2cc(O)c(O)c(OC(=O)c3cc(O)c(O)c(O)c3)c2)[C@H](OC(=O)c2cc(O)c(O)c(OC(=O)c3cc(O)c(O)c(O)c3)c2)[C@@H](OC(=O)c2cc(O)c(O)c(OC(=O)c3cc(O)c(O)c(O)c3)c2)[C@@H]1OC(=O)c1cc(O)c(O)c(OC(=O)c2cc(O)c(O)c(O)c2)c1)c1cc(O)c(O)c(OC(=O)c2cc(O)c(O)c(O)c2)c1 [Tannic acid]
solubility (physchem; water): 10000 µg/mL (≈ 5.88 mM)

C[n+]1cc2c3c(ccc2c2ccc4cc5c(cc4c21)OCO5)OCO3.[Cl-] [Sanguinarine chloride hydrate]
Emission peak (nm) ([2]; ex. 300 nm, liquid): em. 600 nm (liquid); | Emission peak (nm) ([2]; ex. 330 nm, gel): nm, em. 590 nm | Emission peak (nm) ([2]; ex. 405 nm, liquid): ex. 405 nm, em. 600 | Emission peak (nm) ([2]; ex. 460 nm, gel): ex. 460 nm, em. 591 | Emission peak (nm) ([2]; ex. 460 nm, liquid): nm, em. 600 nm | solubility (physchem; organic solvent or mixture): 3330 µg/mL
